Experimental data taken from US8722849B2, “Polypeptides” (Novo Nordisk A/S, priority 2011, dated 2014).
Starred links: 1 amine or outer side, 2 acyl side, 3 side chain; linkers in the order of their positions; H or OH if unused. Positions of bridges follow the written chain, without caps; N, C: chain ends. Residues, ends and D or L forms follow the SMILES beside them. *: point of attachment. C20 diacid = O=C(O)CCCCCCCCCCCCCCCCCCC(=O)*; γGlu = O=C(O)[C@H](CCC(=O)[*:2])N[*:1]

Experiments:
[1] = Assay (III) ThT fibrillation assay for physical stability; type: physicochemical
Summary of the method: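 Freshly prepared formulations, pH-adjusted, with 1 μM ThT; four or eight replicates incubated at 37 °C under 960 rpm orbital shaking. Fluorescence (ex 444/em 485 nm) read every 20 min; […]. Peptide concentration measured by RP-HPLC before and after the run.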

food intake = assay: Assay (I) efficacy testing on appetite (food intake), ad libitum fed rat model; type: in vivo, Sprague Dawley (SD) rats
Description: In the following examples reference is made to the following Assays: • Assay (I)— Experimental protocol for efficacy testing on appetite using an ad libitum fed rat model • ASSAY (II)a—Functional assay—Human calcitonin and amylin receptor assay • ASSAY (II)b—Functional assay—Rat calcitonin and rat amylin receptor assays • ASSAY (III)—ThT fibrillation assays for the assessment of physical stability of protein formulations • ASSAY (IV)—Determination of solubility • ASSAY (V)—Determination of binding to the human amylin receptor • ASSAY (VI)—Determination of the binding to the rat amylin receptor • ASSAY (VII)—Determination of binding to the human calcitonin receptor • ASSAY (VIII)—Determination of binding to the rat calcitonin receptor • ASSAY (IX)—pK—Determination of T % in mini-pig • ASSAY (X)—pK—Determination of T % in rat ASSAY (I)—Experimental Protocol for Efficacy Testing on Appetite Using an Ad Libitum Fed Rat Model
Sprague Dawley (SD) rats from Taconic Europe, Denmark are used for the experiments. The rats have a body weight 200-250 g at the start of experiment. The rats arrive at least 10-14 days before start of experiment to allow acclimatization to experimental settings. During this period the animals are handled at least 2 times. After arrival rats are housed individually for one week in a reversed light/dark phase (meaning that lights are off during daytime and on during nighttime) […]. Since rats are normally active and eat their major part of their daily food intake during the dark period, rats are dosed in the morning right before lights are turned off. This set-up results in the lowest data variation and highest test sensitivity. The experiment is conducted in the rats' home cages and rats have free access to food and water throughout the acclimatization period and the experiment period. Each dose of derivative is tested in a group of 5-8 rats. A vehicle group of 6-8 rats is included in each set of testing. Rats are dosed once according to body weight with a 0.01-3 mg/kg solution administered intraperitoneally (ip), orally (po) or subcutaneously (sc). The time of dosing is recorded for each group. After dosing, the rats are returned to their home cages, where they then have access to food and water. The food consumption is recorded individually continuously by on-line registration or manually every hour for 7 hours, and then after 24 h and sometimes 48 h. At the end of the experimental session, the animals are euthanised.
The individual data are recorded in Microsoft excel sheets. Outliers are excluded after applying the Grubbs statistical evaluation test for outliers, and the result is presented graphically using the GraphPad Prism program.

CC[C@H](C)[C@H](NC(=O)[C@@H]1CCCN1C(=O)CNC(=O)[C@H](Cc1ccccc1)NC(=O)[C@H](CC(N)=O)NC(=O)[C@H](CC(N)=O)NC(=O)[C@H](CO)NC(=O)[C@H](CO)NC(=O)[C@H](Cc1c[nH]cn1)NC(=O)[C@H](Cc1c[nH]cn1)NC(=O)[C@H](CC(C)C)NC(=O)[C@H](Cc1ccccc1)NC(=O)[C@H](CCC(=O)O)NC(=O)[C@H](C)NC(=O)[C@H](CC(C)C)NC(=O)[C@H](CCCNC(=N)N)NC(=O)[C@H](CCC(N)=O)NC(=O)[C@@H](NC(=O)[C@H](C)NC(=O)[C@@H]1CSSC[C@H](NC(=O)[C@H](Cc2c[nH]cn2)NC(=O)CC[C@H](NC(=O)CCCCCCCCCCCCCCCCCCC(=O)O)C(=O)O)C(=O)N[C@@H](CC(N)=O)C(=O)N[C@@H]([C@@H](C)O)C(=O)N[C@@H](C)C(=O)N[C@@H]([C@@H](C)O)C(=O)N1)[C@@H](C)O)C(=O)N[C@@H](CC(C)C)C(=O)N1CCC[C@H]1C(=O)N1CCC[C@H]1C(=O)N[C@H](C(=O)N[C@@H](CC(N)=O)C(=O)N[C@H](C(=O)NCC(=O)N[C@@H](CO)C(=O)N[C@@H](CC(N)=O)C(=O)N[C@H](C(=O)N1CCC[C@H]1C(N)=O)[C@@H](C)O)C(C)C)[C@@H](C)O [Example 84, N-alpha-[(S)-4-Carboxy-4-(19-carboxynonadecanoylamino)butyryl]-[His1,Glu14,His17,Pro37]-pramlintide] ({C20 diacid-γGlu}-HCNTATCATQRLAEFLHHSSNNFGPILPPTNVGSNTP-NH2; disulfide 2-7 (inferred); C-terminus assumed)
ThT pH 4.0 lag time ([1]; Table 8): 25.6 h | ThT pH 4.0 lag time ([1]; ThT fibrillation assay): 25.6 h | ThT pH 4.0 lag time (h) ([1]; ThT fibrillation assay): 25.6 h | Food intake reduction 0-24 h 3 nmol/kg (%) (food intake; 0-24 h): 68% | Food intake reduction 24-48 h 3 nmol/kg (%) (food intake; 24-48 h): 67%

CC[C@H](C)[C@H](NC(=O)[C@@H]1CCCN1C(=O)CNC(=O)[C@H](Cc1ccccc1)NC(=O)[C@H](CC(N)=O)NC(=O)[C@H](CC(N)=O)NC(=O)[C@H](CO)NC(=O)[C@H](CO)NC(=O)[C@H](Cc1c[nH]cn1)NC(=O)[C@H](Cc1c[nH]cn1)NC(=O)[C@H](CC(C)C)NC(=O)[C@H](Cc1ccccc1)NC(=O)[C@H](CCC(=O)O)NC(=O)[C@H](C)NC(=O)[C@H](CC(C)C)NC(=O)[C@H](CCCNC(=N)N)NC(=O)[C@H](CCC(N)=O)NC(=O)[C@@H](NC(=O)[C@H](C)NC(=O)[C@@H]1CSSC[C@H](NC(=O)[C@H](CCCCN)NC(=O)CC[C@H](NC(=O)CCCCCCCCCCCCCCCCCCC(=O)O)C(=O)O)C(=O)N[C@@H](CC(N)=O)C(=O)N[C@@H]([C@@H](C)O)C(=O)N[C@@H](C)C(=O)N[C@@H]([C@@H](C)O)C(=O)N1)[C@@H](C)O)C(=O)N[C@@H](CC(C)C)C(=O)N1CCC[C@H]1C(=O)N1CCC[C@H]1C(=O)N[C@H](C(=O)N[C@@H](CC(N)=O)C(=O)N[C@H](C(=O)NCC(=O)N[C@@H](CO)C(=O)N[C@@H](CC(N)=O)C(=O)N[C@H](C(=O)N1CCC[C@H]1C(N)=O)[C@@H](C)O)C(C)C)[C@@H](C)O [Example 52, N-alpha-[(S)-4-Carboxy-4-(19-carboxynonadecanoylamino)butyryl]-[Glu14,His17,Pro37]-pramlintide] ({C20 diacid-γGlu}-KCNTATCATQRLAEFLHHSSNNFGPILPPTNVGSNTP-NH2; disulfide 2-7 (inferred); C-terminus assumed)
ThT pH 4.0 lag time ([1]; Table 8): >45 h | ThT pH 4.0 lag time ([1]; Table 9): >45 h | ThT pH 4.0 lag time ([1]; ThT fibrillation assay): >45 h | ThT pH 4.0 lag time (h) ([1]; ThT fibrillation assay): >45 h | Food intake reduction 0-24 h 3 nmol/kg (%) (food intake; 0-24 h): 62% | Food intake reduction 24-48 h 3 nmol/kg (%) (food intake; 24-48 h): 74%

CC[C@H](C)[C@H](NC(=O)[C@@H]1CCCN1C(=O)CNC(=O)[C@H](Cc1ccccc1)NC(=O)[C@H](CC(N)=O)NC(=O)[C@H](CC(N)=O)NC(=O)[C@H](CO)NC(=O)[C@H](CO)NC(=O)[C@H](Cc1c[nH]cn1)NC(=O)[C@H](CCCNC(=N)N)NC(=O)[C@H](CC(C)C)NC(=O)[C@H](Cc1ccccc1)NC(=O)[C@H](CCC(=O)O)NC(=O)[C@H](C)NC(=O)[C@H](CC(C)C)NC(=O)[C@H](CCCNC(=N)N)NC(=O)[C@H](CCC(N)=O)NC(=O)[C@@H](NC(=O)[C@H](C)NC(=O)[C@@H]1CSSC[C@H](NC(=O)[C@H](Cc2c[nH]cn2)NC(=O)[C@H](Cc2c[nH]cn2)NC(=O)[C@H](Cc2c[nH]cn2)NC(=O)CC[C@H](NC(=O)CCCCCCCCCCCCCCCCCCC(=O)O)C(=O)O)C(=O)N[C@@H](CC(N)=O)C(=O)N[C@@H]([C@@H](C)O)C(=O)N[C@@H](C)C(=O)N[C@@H]([C@@H](C)O)C(=O)N1)[C@@H](C)O)C(=O)N[C@@H](CC(C)C)C(=O)N1CCC[C@H]1C(=O)N1CCC[C@H]1C(=O)N[C@H](C(=O)N[C@@H](CC(N)=O)C(=O)N[C@H](C(=O)NCC(=O)N[C@@H](CO)C(=O)N[C@@H](CC(N)=O)C(=O)N[C@H](C(=O)N[C@@H](Cc1ccc(O)cc1)C(N)=O)[C@@H](C)O)C(C)C)[C@@H](C)O [Example 12, N-alpha-[(S)-4-Carboxy-4-(19-carboxynonadecanoylamino)butyryl]-His-His-[His1,Glu14,Arg17]-pramlintide] ({C20 diacid-γGlu}-HHHCNTATCATQRLAEFLRHSSNNFGPILPPTNVGSNTY-NH2; disulfide 4-9 (inferred); C-terminus assumed)
ThT pH 4.0 lag time ([1]; ThT fibrillation assay): >45 h | ThT pH 4.0 lag time (h) ([1]; ThT fibrillation assay): >45 h | Food intake reduction 0-24 h 30 nmol/kg (%) (food intake; 0-24 h, 30 nmol/kg): 70% | Food intake reduction 24-48 h 30 nmol/kg (%) (food intake; 24-48 h, 30 nmol/kg): 45%

CC[C@H](C)[C@H](NC(=O)[C@@H]1CCCN1C(=O)CNC(=O)[C@H](Cc1ccccc1)NC(=O)[C@H](CC(N)=O)NC(=O)[C@H](CC(N)=O)NC(=O)[C@H](CO)NC(=O)[C@H](CO)NC(=O)[C@H](Cc1c[nH]cn1)NC(=O)[C@H](Cc1c[nH]cn1)NC(=O)[C@H](CC(C)C)NC(=O)[C@H](Cc1ccccc1)NC(=O)[C@H](CCC(=O)O)NC(=O)[C@H](C)NC(=O)[C@H](CC(C)C)NC(=O)[C@H](CCCNC(=N)N)NC(=O)[C@H](CCC(N)=O)NC(=O)[C@@H](NC(=O)[C@H](C)NC(=O)[C@@H]1CSSC[C@H](NC(=O)CC[C@H](NC(=O)CCCCCCCCCCCCCCCCCCC(=O)O)C(=O)O)C(=O)N[C@@H](CC(N)=O)C(=O)N[C@@H]([C@@H](C)O)C(=O)N[C@@H](C)C(=O)N[C@@H]([C@@H](C)O)C(=O)N1)[C@@H](C)O)C(=O)N[C@@H](CC(C)C)C(=O)N1CCC[C@H]1C(=O)N1CCC[C@H]1C(=O)N[C@H](C(=O)N[C@@H](CC(N)=O)C(=O)N[C@H](C(=O)NCC(=O)N[C@@H](CO)C(=O)N[C@@H](CC(N)=O)C(=O)N[C@H](C(=O)N[C@@H](Cc1ccc(O)cc1)C(N)=O)[C@@H](C)O)C(C)C)[C@@H](C)O [Example 28, N-alpha-[(S)-4-Carboxy-4-(19-carboxynonadecanoylamino)butyryl]-[des1,Glu14,His17]-pramlintide] ({C20 diacid-γGlu}-CNTATCATQRLAEFLHHSSNNFGPILPPTNVGSNTY-NH2; disulfide 1-6 (inferred))
ThT pH 4.0 lag time (h) ([1]; ThT fibrillation assay): 9.3 h | Food intake reduction 0-24 h 3 nmol/kg (%) (food intake; 0-24 h): 39% | Food intake reduction 24-48 h 3 nmol/kg (%) (food intake; 24-48 h): 36%
